From ChEMBL document CHEMBL1134339, “New 1-aryl-3-(4-arylpiperazin-1-yl)propane derivatives, with dual action at 5-HT1A serotonin receptors and serotonin transporter, as a new class of antidepressants” (J Med Chem, 2001)

Legend:
[1] = target: T1, 5-hydroxytryptamine receptor 1A (Homo sapiens) (UniProt P08908); experiment: Percent increase in the Forskolin-Stimulated cAMP formation, in HeLa cells transfected with the 5-HT 1A receptor at 10 uM concentration; assay type: functional, cell-based
T1 sequence (whole entry): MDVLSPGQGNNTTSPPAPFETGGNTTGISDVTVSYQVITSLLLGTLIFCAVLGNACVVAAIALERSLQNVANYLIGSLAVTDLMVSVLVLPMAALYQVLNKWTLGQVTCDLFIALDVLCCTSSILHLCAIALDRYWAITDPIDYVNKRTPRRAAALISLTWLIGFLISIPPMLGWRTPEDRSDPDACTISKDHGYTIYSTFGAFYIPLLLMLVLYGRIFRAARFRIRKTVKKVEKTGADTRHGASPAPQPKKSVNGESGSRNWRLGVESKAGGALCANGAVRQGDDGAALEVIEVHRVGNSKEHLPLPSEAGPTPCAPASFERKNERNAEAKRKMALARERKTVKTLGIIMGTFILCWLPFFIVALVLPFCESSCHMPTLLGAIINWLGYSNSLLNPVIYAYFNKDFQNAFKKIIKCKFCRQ

[2] = target: T1, 5-hydroxytryptamine receptor 1A (Homo sapiens); experiment: Effect on Forskolin-Stimulated cAMP formation, in HeLa cells transfected with the 5-HT 1A receptor at 10 uM concentration; assay type: functional, cell-based
Rattus norvegicus [3] = experiment: Effect on helpless behavior in rats and the number of escape failures was determined in shuttle-box session-3 (SB-3) at 30 mg/kg dose; assay type: functional
Rattus norvegicus [4] = experiment: Effect on helpless behavior in rats and the number of escape failures was determined in shuttle-box session-2 (SB-2) at 30 mg/kg dose; assay type: functional
Rattus norvegicus [5] = experiment: Effect on helpless behavior in rats and the number of escape failures was determined in shuttle-box session-1 (SB-1) at 30 mg/kg dose; assay type: functional
Mus musculus [6] = experiment: Time-dependent effect on 8-OH-DPAT-induced hypothermia (change in body temperature) after 15 min, in mice at 0.5 mg/kg dose; assay type: functional
Mus musculus [7] = experiment: Effect on immobility time in the forced swimming test (FST) in mice at 10 mg/kg dose; assay type: functional
Mus musculus [8] = experiment: Antidepressant-like activity in the forced swimming test (FST) in mice at 1 mg/kg dose; Antidepressant like activity; assay type: functional
Mus musculus [9] = experiment: Time-dependent effect on 8-OH-DPAT-induced hypothermia (change in body temperature) after 60 min, in mice at 0.5 mg/kg dose; assay type: functional
[10] = target: T2, 5-hydroxytryptamine receptor 1A (Rattus norvegicus, UniProt P19327); experiment: Binding affinity to 5-hydroxytryptamine 1A receptor (5-HT 1A receptor, serotonin receptor) from rat cortex using [3H]8-OH-DPAT as radioligand; settings: read-out: Ki
T2 sequence (P19327 whole entry): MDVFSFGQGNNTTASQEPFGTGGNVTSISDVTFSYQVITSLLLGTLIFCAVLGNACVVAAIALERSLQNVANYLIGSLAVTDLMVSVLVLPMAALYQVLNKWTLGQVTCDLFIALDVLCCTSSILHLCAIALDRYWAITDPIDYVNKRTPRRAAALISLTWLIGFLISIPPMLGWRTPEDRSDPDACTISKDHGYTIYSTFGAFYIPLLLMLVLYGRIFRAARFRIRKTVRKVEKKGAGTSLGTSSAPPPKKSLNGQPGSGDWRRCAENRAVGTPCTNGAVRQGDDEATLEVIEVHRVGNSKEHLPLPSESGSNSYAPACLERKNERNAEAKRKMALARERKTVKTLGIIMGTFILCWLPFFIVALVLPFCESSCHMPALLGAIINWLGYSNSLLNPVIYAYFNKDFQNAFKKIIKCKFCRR

Mus musculus [11] = experiment: Effect on immobility time in the forced swimming test (FST) in mice at mg/kg dose; assay type: functional
Mus musculus [12] = experiment: Effect on immobility time in the forced swimming test (FST) in mice at 0.1 mg/kg dose; assay type: functional
Mus musculus [13] = experiment: Antidepressant-like activity in the forced swimming test (FST) in mice at 0.1 mg/kg dose; Antidepressant like activity; assay type: functional
[14] = target: Sodium-dependent serotonin transporter (Rattus norvegicus, UniProt P31652); experiment: Binding affinity towards Serotonin transporter from rat cortex measured using [3H]paroxetine; settings: read-out: Ki
Sequence of Sodium-dependent serotonin transporter (P31652 whole entry): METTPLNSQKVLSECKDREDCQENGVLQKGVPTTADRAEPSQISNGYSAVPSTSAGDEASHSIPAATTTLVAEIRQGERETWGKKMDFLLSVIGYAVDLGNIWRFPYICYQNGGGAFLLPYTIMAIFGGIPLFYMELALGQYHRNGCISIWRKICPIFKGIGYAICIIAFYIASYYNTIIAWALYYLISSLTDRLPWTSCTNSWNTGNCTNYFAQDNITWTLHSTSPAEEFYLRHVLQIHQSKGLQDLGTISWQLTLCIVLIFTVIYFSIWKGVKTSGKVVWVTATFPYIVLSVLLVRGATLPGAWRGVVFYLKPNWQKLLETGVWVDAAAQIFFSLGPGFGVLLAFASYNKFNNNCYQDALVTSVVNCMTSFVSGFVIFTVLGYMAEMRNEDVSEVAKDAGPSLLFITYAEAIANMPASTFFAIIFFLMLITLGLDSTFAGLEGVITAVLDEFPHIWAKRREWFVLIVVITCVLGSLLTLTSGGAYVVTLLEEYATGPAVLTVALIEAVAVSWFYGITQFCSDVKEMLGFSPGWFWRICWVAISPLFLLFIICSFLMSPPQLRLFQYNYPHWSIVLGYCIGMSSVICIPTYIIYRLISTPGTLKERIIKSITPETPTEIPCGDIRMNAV

Mus musculus [15] = experiment: Time-dependent effect on 8-OH-DPAT-induced hypothermia (change in body temperature) after 30 min, in mice at 0.5 mg/kg dose; assay type: functional
Mus musculus [16] = experiment: Time-dependent effect on 8-OH-DPAT-induced hypothermia (change in body temperature) after 60 min, in mice at 5 mg/kg dose; assay type: functional
Mus musculus [17] = experiment: Effect on immobility time in the forced swimming test (FST) in mice at 0 mg/kg dose; assay type: functional
Mus musculus [18] = experiment: Antidepressant-like activity in the forced swimming test (FST) in mice at 10 mg/kg dose; Antidepressant like activity; assay type: functional
Mus musculus [19] = experiment: Time-dependent effect on 8-OH-DPAT-induced hypothermia (change in body temperature) after 30 min, in mice at 5 mg/kg dose; assay type: functional
Mus musculus [20] = experiment: Time-dependent effect on 8-OH-DPAT-induced hypothermia (change in body temperature) after 15 min, in mice at 5 mg/kg dose; assay type: functional
Mus musculus [21] = experiment: Effect on immobility time in the forced swimming test (FST) in mice at 1 mg/kg dose; assay type: functional
[22] = target: T1, 5-hydroxytryptamine receptor 1A (Homo sapiens); experiment: Percent increase in the Forskolin-Stimulated cAMP formation, in HeLa cells transfected with the 5-HT 1A receptor [compound (1 uM)]; assay type: functional, cell-based
[23] = target: T1, 5-hydroxytryptamine receptor 1A (Homo sapiens); settings: HeLa
Description: Effect on Forskolin-Stimulated cAMP formation, in HeLa cells transfected with the 5-HT 1A receptor at 1 uM concentration

[24] = target: T1, 5-hydroxytryptamine receptor 1A (Homo sapiens); settings: HeLa; remark: listed apart in the source
Description: Effect (1 uM) on Forskolin-Stimulated cAMP formation, in HeLa cells transfected with the 5-HT 1A receptor

[25] = target: T1, 5-hydroxytryptamine receptor 1A (Homo sapiens); experiment: Percent increase in the Forskolin-Stimulated cAMP formation, in HeLa cells transfected with the 5-HT 1A receptor at 1 uM concentration; assay type: functional, cell-based
Mus musculus [26] = experiment: Time-dependent effect on 8-OH-DPAT-induced hypothermia (change in body temperature) after 30 min, in mice at 1 mg/kg dose; assay type: functional
Mus musculus [27] = experiment: Time-dependent effect on 8-OH-DPAT-induced hypothermia (change in body temperature) after 15 min, in mice at 1 mg/kg dose; assay type: functional
Mus musculus [28] = experiment: Time-dependent effect on 8-OH-DPAT-induced hypothermia (change in body temperature) after 60 min, in mice at 1 mg/kg dose; assay type: functional

Compound | Temperature change (Mus musculus [6]) [°C] | Immobility time (Mus musculus [7]) [s] | Activity (Mus musculus [8]) [%] | Temperature change (Mus musculus [9]) [°C] | Ki [10] [µM] | Immobility time (Mus musculus [12]) [s] | Activity (Mus musculus [13]) [%] | Ki [14] [µM] | Temperature change (Mus musculus [15]) [°C] | Temperature change (Mus musculus [16]) [°C] | Immobility time (Mus musculus [17]) [s] | Activity (Mus musculus [18]) [%] | Temperature change (Mus musculus [19]) [°C] | Temperature change (Mus musculus [20]) [°C] | other results
C=C[C@@]1(C)CC(=O)[C@]2(O)[C@@]3(C)[C@@H](O)CCC(C)(C)[C@@H]3[C@H](O)[C@H](OC(C)=O)[C@@]2(C)O1 | – | – | – | – | – | – | – | – | – | – | – | – | – | – | Activity [1]: 100%; cAMP [2]: 29.7 pmol/well
CNCCC(Oc1ccc(C(F)(F)F)cc1)c1ccccc1 (configuration not stated) [FLUOXETINE] | – | – | – | – | – | – | – | – | – | – | – | – | – | – | No. of escape failures (Rattus norvegicus [3]): <3.2; No. of escape failures (Rattus norvegicus [4]): <4; No. of escape failures (Rattus norvegicus [5]): 13
COc1ccccc1N1CCN(CC/C(=N\O)c2csc3ccccc23)CC1 | -2.16 | <102 | 22 | -1.7 | 0.06 | 181.1 | 0 | 0.095 | -2.18 | -1.31 | 188.1 | 50 | -2.99 | -2.77 | Immobility time (Mus musculus [11]): 150.1 s
COc1ccccc1N1CCN(CC/C(=N\O)c2ccc(C)s2)CC1 | -2.12 | 126.2 | 51 | -1.11 | 0.13 | 151.6 | 0 | 0.065 | -2.05 | -0.94 | 142.7 | 13 | -1.31 | -1.41 | Immobility time (Mus musculus [21]): <79.2 s; cAMP increase [22]: 33%; cAMP [23]: 7.4 pmol/well; cAMP [24]: 9.8 pmol/well; cAMP increase [25]: 25%
COc1ccccc1N1CCN(CCN(C(=O)C2CCCCC2)c2ccccn2)CC1 [WAY-100,635] | – | – | – | – | – | – | – | – | – | – | – | – | – | – | Temperature change (Mus musculus [26]): <-0.95 °C; Temperature change (Mus musculus [27]): <-0.71 °C; Temperature change (Mus musculus [28]): -0.35 °C
